Consider seven compounds from patent publication US20190115105A1, “TANDEM DUPLICATOR PHENOTYPE (TDP) AS A DISTINCT GENOMIC CONFIGURATION IN CANCER AND USE THEREOF” (The Jackson Laboratory, priority 2016, published 2019).

Like-named read-outs stand apart in the source and are kept apart here.

Experiment [1] has as its system TNBC patient derived xenograft (PDX) models. Briefly: In vivo response in patient derived xenograft (PDX) models of TNBC. Details: species or system mice. Conditions: for association of the TDP with sensitivity in PDX models: same eight TNBC PDX models, data not shown. The source says:
This hypothesis was explored further by testing in vivo response to cisplatin treatment in eight independent patient derived xenograft (PDX) models of TNBC. […] Thus in both established cell lines and in in vivo patient derived xenografts, TDP status is strongly associated with cisplatin sensitivity.
TNBC patient-derived xenograft models were established at The Jackson Laboratory campus in Sacramento (JAX-West) and tested for cisplatin sensitivity as previously published. All animal procedures were performed under IACUC protocol #12027. Briefly, patient tumor material acquired from biopsy or surgical resection was implanted subcutaneously into the flank of NOD-scid IL2r gamma-chain null female mice (8-10 week-old). Models were considered “established” when log-phase growth in a second passage was evident. Individual tumor-bearing mice were randomized into treatments cohorts of at least six animals each on an accrual basis when tumors reached a volume of 150 mm^3 (day 0), at which point each tumor model was assessed for its response to cisplatin treatment, administrated at a dose of 2 mg/kg body weight and following a three-week regimen consisting of one IV injection per week. Changes in tumor volumes were measured twice a week for four full weeks from the beginning of the treatment or until tumor volumes reached the 1500 mm^3 endpoint. Treatment outcome was evaluated in terms of total response (percentage of tumor shrinkage/growth at day 20 relative to day 0). The […] TNBC PDX models that were available as part of The Jackson Laboratory inventory of TNBC PDX Live™ tumor-bearing mice were analyzed. In combination with a high number of replicates per model (6-10 animals per treatment arm), enough power to observe the statistically significant effect of the TDP configuration on cisplatin response was obtained.
A general note: Xenograft models place foreign cells or tissue in a host animal.

In another experiment the test system is MB436. Nature of the experiment: Cell viability IC50 (WST-8), MB436. Format: cell-based, human. Conditions: MB436, TDP Score 0.469, 72 hours. The source says: (§1) All of the cell lines were purchased from the American Type Culture Collection (ATCC). They were authenticated by Short Tandem Repeat (STR) DNA profiling and regularly tested for Mycoplasma contamination using the MycoAlert PLUS Mycoplasma Detection Kit (Lonza). MB436, HCC38, HCC1187, HCC1395, MDA-MB231, HCC1937, HCC1599, HCC1143, HCC70, DU4475, MDA-MB157, HCC1806 were maintained in RPMI with 10% fetal bovine serum (FBS). BT549 was maintained in DMEM with 10% v/v FBS, and Hs578T in DMEM with 10% FBS and 0.01 mg/ml bovine insulin. IC50 value determinations were obtained by plating target cells in 96 well plates at a density of 1-5×10^3 cells per well. After twenty-four hours, cisplatin (Santa Cruz Biotechnology, Inc.) or carboplatin (Selleck Chemicals) were added to the culture medium in half-log serial dilutions in the range of 3.3 nM to 100 μM, in triplicate wells. Cells were incubated for 72 hours before assessing cell viability using the WST-8 assay (Dojindo Molecular Technologies, Inc.). Absorbance values were normalized to control wells (medium only) and IC50 values were calculated using the IC50R package. Two independent replicate experiments were carried out for each cell line and each treatment and the average IC50 value from the two experiments was used for the analysis.
For orientation: Tetrazolium assays rely on reduction of a dye to a coloured formazan, in cell work by metabolically active cells.

Experiment [2] deals with HCC38. Nature of the experiment: Cell viability IC50 (WST-8), HCC38. Format: cell-based, human. As to conditions: HCC38, TDP Score 0.367, 72 hours.
Description: as §1

The test system of experiment [3] is HCC1187. Briefly: Cell viability IC50 (WST-8), HCC1187. Format: cell-based, human. As to conditions: HCC1187, TDP Score 0.152, 72 hours.
Description: as §1

Experiment [4] deals with HCC1395. Nature of the experiment: Cell viability IC50 (WST-8), HCC1395. Format: cell-based, human. Conditions: HCC1395, TDP Score 0.118, 72 hours.
Description: as §1

A further experiment deals with HCC1806. Briefly: Cell viability IC50 (WST-8), HCC1806. Format: cell-based, human. As to conditions: HCC1806, TDP Score 0.08, 72 hours.
Description: as §1

The subject of experiment [5] is HCC1937. Briefly: Cell viability IC50 (WST-8), HCC1937. It is filed as cell-based, human. Conditions: HCC1937, TDP Score −0.17, 72 hours.
Description: as §1

The test system of another experiment is BT549. Briefly: Cell viability IC50 (WST-8), BT549. Format: cell-based, human. Conditions: BT549, TDP Score −0.3, 72 hours.
Description: as §1

The test system of another experiment is HCC70. Nature of the experiment: Cell viability IC50 (WST-8), HCC70. As to conditions: HCC70, TDP Score −0.3, 72 hours. It is filed as cell-based, human.
Description: as §1

The test system of experiment [6] is MB231. Nature of the experiment: Cell viability IC50 (WST-8), MB231. As to conditions: MB231, TDP Score −0.306, 72 hours. It is filed as cell-based, human.
Description: as §1

Another experiment deals with MB157. Nature of the experiment: Cell viability IC50 (WST-8), MB157. Format: cell-based, human. As to conditions: MB157, TDP Score −0.39, 72 hours.
Description: as §1

The next experiment relates to HCC1143. Briefly: Cell viability IC50 (WST-8), HCC1143. It is filed as cell-based, human. As to conditions: HCC1143, TDP Score −0.424, 72 hours.
Description: as §1

The test system of the next experiment is Hs578T. Briefly: Cell viability IC50 (WST-8), Hs578T. As to conditions: TDP Score −0.54, 72 hours. Format: cell-based, human.
Description: as §1

The next experiment concerns DU4475. Briefly: Cell viability IC50 (WST-8), DU4475. It is filed as cell-based, human. Conditions: DU4475, TDP Score −0.36, 72 hours.
Description: as §1

Experiment [7] concerns HCC1599. Nature of the experiment: Cell viability IC50 (WST-8), HCC1599. As to conditions: HCC1599, TDP Score −0.447, 72 hours. Format: cell-based, human.
Description: as §1

Experiment [8] concerns HCC38. As to conditions: HCC38, TNBC, TDP, TDP Score 0.367; GDSC data base; cited from earlier work.
In experiment [9] the test system is HCC1187. As to conditions: HCC1187, TNBC, TDP, TDP Score 0.152; GDSC data base; cited from earlier work.
The subject of experiment [10] is HCC1395. As to conditions: HCC1395, TNBC, TDP, TDP Score 0.118; GDSC data base; cited from earlier work.
The test system of experiment [11] is HCC1937. As to conditions: HCC1937, TNBC, non-TDP, TDP Score −0.17; GDSC data base; cited from earlier work.
A further experiment relates to T47D. As to conditions: ER/PR+, non-TDP, TDP Score −0.269, GDSC data base; cited from earlier work.
Experiment [12] deals with MB231. As to conditions: MB231, TNBC, non-TDP, TDP Score −0.306; GDSC data base; cited from earlier work.
A further experiment deals with HCC1954. Conditions: HCC1954, ERBB2+, non-TDP, TDP Score −0.434; GDSC data base; cited from earlier work.
The subject of another experiment is HCC2218. Conditions: HCC2218, ERBB2+, non-TDP, TDP Score −0.849; GDSC data base; cited from earlier work.
The subject of another experiment is MCF-7. Conditions: MCF-7, ER/PR+, TDP, TDP Score 0.385; GDSC data base; cited from earlier work.
A further experiment concerns HCC2157. As to conditions: HCC2157, TNBC, TDP, TDP Score 0.076; GDSC data base; cited from earlier work.
The test system of experiment [13] is HCC1599. As to conditions: HCC1599, TNBC, non-TDP, TDP Score −0.447; GDSC data base; cited from earlier work.

Regarding `COc1cccc2c1C(=O)c1c(O)c3c(c(O)c1C2=O)C[C@@](O)(C(=O)CO)C[C@@H]3O[C@H]1C[C@H](N)[C@H](O)[C@H](C)O1` [doxorubicin], the “association of the TDP with sensitivity in PDX models” value in experiment [1] is “not associated with sensitivity”.

`O=C(c1cc(Cc2n[nH]c(=O)c3ccccc23)ccc1F)N1CCN(C(=O)C2CC2)CC1` [Olaparib, olaparib]: the “IC50 Ln (μM)” value in the experiment on MB436 is 3.77 Ln (μM); in the experiment with HCC38 [2], 1.99 Ln (μM); in the experiment on HCC1187 [3], 3.57 Ln (μM); with HCC1395 [4] it was 4.28 Ln (μM); in the experiment with HCC1806 it was 2.40 Ln (μM); in the experiment on HCC1937 [5], 4.51 Ln (μM). Besides, the “IC50 Ln (μM)” value in the experiment on BT549 was 3.09 Ln (μM); in the experiment with HCC70 it was 4.19 Ln (μM); with MB231 [6] it was 3.49 Ln (μM); with MB157 it was 3.16 Ln (μM); in the experiment on HCC1143, 4.57 Ln (μM); in the experiment with Hs578T it was 4.61 Ln (μM).

On to `N.N.[Cl][Pt][Cl]` [Cisplatin, cisplatin], for which the “IC50 Ln (μM)” value was 1.17 Ln (μM) in the experiment with MB436; 2.8 Ln (μM) in the experiment with HCC38 [2]; 2.15 Ln (μM) in the experiment with HCC1187 [3]; 2.4 Ln (μM) in the experiment with HCC1395 [4]; 2.76 Ln (μM) with HCC1806; 3.22 Ln (μM) in the experiment with HCC1937 [5]. Also, the “IC50 Ln (μM)” value was 2.28 Ln (μM) with BT549; 2.75 Ln (μM) with HCC70; 3.52 Ln (μM) in the experiment on MB231 [6]; 2.04 Ln (μM) in the experiment on DU4475; 2.62 Ln (μM) with MB157; 3.3 Ln (μM) in the experiment with HCC1143. Moreover, the “IC50 Ln (μM)” value in the experiment on HCC1599 [7] is 2.65 Ln (μM); with Hs578T, 3.62 Ln (μM); with HCC38 [8] it was 5.07 Ln (μM); in the experiment with HCC1187 [9], 4.76 Ln (μM); with HCC1395 [10], 4.96 Ln (μM); in the experiment with HCC1937 [11], 4.92 Ln (μM). Further, the “IC50 Ln (μM)” value in the experiment on T47D was 4.86 Ln (μM); in the experiment on MB231 [12] it was 5.57 Ln (μM); with HCC1954, 6.94 Ln (μM); with HCC2218, 5.99 Ln (μM). Further, the “tumor growth compared to the vehicle arm” value in [1] (all five TDP PDX models, three-week regimen, 2 mg/kg IV weekly) was “significant reduction in tumor growth”. Besides, the “tumor shrinkage of individual tumors (partial response)” value in [1] (four out of the five TDP PDX models, three-week regimen, 2 mg/kg, one IV injection per week) was greater than 80%. In addition, the “reduction in tumor volume after three weeks of treatment” value in experiment [1] (three non-TDP PDX models, 2 mg/kg IV weekly) is on record as “none of the three non-TDP models analyzed exhibited a reduction in tumor volume”. For the same compound, in [1] (three non-TDP PDX models, three-week regimen, 2 mg/kg IV weekly), the “response compared to the vehicle arm” value is listed as “only one out of the three models showed a significant response”.

Turning to `CC(=O)O[C@@]12CO[C@@H]1C[C@H](O)[C@@]1(C)C(=O)[C@H](O)C3=C(C)[C@@H](OC(=O)[C@H](O)[C@@H](NC(=O)OC(C)(C)C)c4ccccc4)C[C@@](O)([C@@H](OC(=O)c4ccccc4)[C@H]21)C3(C)C` [docetaxel], the “association of the TDP with sensitivity in PDX models” value in [1] is “not associated with sensitivity”.

With `Nc1ccn([C@@H]2O[C@H](CO)[C@@H](O)[C@@H]2O)c(=O)n1` [Cytarabine], the “IC50 Ln (μM)” value with MCF-7 is given as 0.69 Ln (μM); in the experiment with HCC38 [8] it was 0.63 Ln (μM); in the experiment with HCC1187 [9], 3.36 Ln (μM); in the experiment on HCC1395 [10], 1.1 Ln (μM); in the experiment on HCC1937 [11], 3.32 Ln (μM); in the experiment with T47D, 3.47 Ln (μM). The “IC50 Ln (μM)” value in the experiment on MB231 [12] is listed as 2.18 Ln (μM); with HCC1954, 3.41 Ln (μM); in the experiment with HCC2218 it was 4.68 Ln (μM).

With `Cc1cc(N2CCOCC2)cc2[nH]c(-c3c(NC[C@@H](O)c4cccc(Cl)c4)cc[nH]c3=O)nc12` [BMS-536924], the “IC50 Ln (μM)” value with HCC1187 [9] is 2.81 Ln (μM); in the experiment on HCC2157, 3.64 Ln (μM); in the experiment on HCC1599 [13], 5.27 Ln (μM); in the experiment with HCC2218, 6.22 Ln (μM).

In the case of `COc1cc(N2CCC(N3CCN(C)CC3)CC2)ccc1Nc1ncc(Cl)c(Nc2ccccc2S(=O)(=O)C(C)C)n1` [NVP-TAE684], the “IC50 Ln (μM)” value in the experiment with HCC1187 [9] is 0.62 Ln (μM); in the experiment on HCC2157 it was 0.38 Ln (μM); in the experiment on HCC1599 [13], 2.98 Ln (μM); in the experiment with HCC2218, 5.37 Ln (μM).
